According to US5554789A, “Arylpropionic derivative, a process for the preparation and the use thereof as an analgesic agent” (Laboratorios Menarini S.A., priority 1992, dated 1996):
Counter-ions that a name gives are not always drawn. Like-named read-outs stand apart in the source and are kept apart here.

Columns and labels:
[1] = test system: Swiss male mice; experiment: Phenylbenzoquinone writhing test (analgesic activity); format: in vivo
[2] = cited from earlier work
[3] = pH in aqueous solution; format: physicochemical
[4] = Gastrolesive effect in animals
[5] = Plasmatic levels of the (+)-(S) enantiomer in humans; conditions: vs (+)-(S)-ketoprofen free acid or double dose of racemic ketoprofen free acid
[6] = Hygroscopicity; format: physicochemical
[7] = Toxicity (general statement); conditions: compared with the other derivatives
[8] = Analgesic action (general statements); format: in vivo
[9] = Dissolution rate in water; format: physicochemical; conditions: compared with compound (I)
[10] = background; cited from earlier work

CC(C(=O)O)c1cccc(C(=O)c2ccccc2)c1 (racemic) [(R,S)-ketoprofen tromethamine salt]
% Inhibition (analgesic effect, phenylbenzoquinone test) ([1]; intravenously, 0.30 mg/kg (amount of ketoprofen injected)): 62.9 ± 11.7%

CC(C(=O)O)c1cccc(C(=O)c2ccccc2)c1 (racemic) [(R,S)-ketoprofen, 2-(3-Benzoylphenyl)propionic acid]
% Inhibition (analgesic effect, phenylbenzoquinone test) ([1]; orally, 30 minutes prior to phenylbenzoquinone, 0.30 mg/kg): 50.0 ± 7.8% | analgesic and antipyretic action ([2]; background): potent analgesic and antipyretic action

C[C@H](C(=O)O)c1cccc(C(=O)c2ccccc2)c1 [(+)-(S)-ketoprofen, (+)-(S)-2-(3-benzoylphenyl)propionic acid]
analgesic action ([2]; vs the racemic, administered doses being equal): faster acting and more potent analgesic than the racemic

C[C@H](C(=O)O)c1cccc(C(=O)c2ccccc2)c1 [I, (+)-(S)-2-(3-benzoylphenyl)propionic acid tromethamine salt]
analgesic effectiveness compared with racemic ketoprofen ([1]; phenylbenzoquinone writhing test, intravenous and oral): same analgesic effectiveness as a racemic ketoprofen double dose | pH in aqueous solution [3]: physiologically compatible pH in aqueous solution | gastrolesive effect ([4]; animals, vs (+)-(S)-, (-)-(R)- and racemic ketoprofen): much less gastrolesive | gastrolesive effect ([4]; vs corresponding free acid or racemic ketoprofen): markedly less gastrolesive than the corresponding free acid or the racemic ketoprofen | plasmatic levels of the active (+)-(S) enantiomer [5]: higher plasmatic levels of the active (+)-(S) enantiomer in a far shorter time | hygroscopicity [6]: very low hygroscopicity | toxicity [7]: lower toxicity | analgesic action (onset, response, duration) ([8]; vs racemic ketoprofen): faster onset of analgesic action, an enhanced analgesic response and a longer duration than racemic ketoprofen | analgesic action and response ([8]; vs racemic ketoprofen tromethamine salt): faster action and enhanced analgesic response than the racemic ketoprofen tromethamine salt

C[C@H](C(=O)O)c1cccc(C(=O)c2ccccc2)c1 [L-lysine salt]
dissolution rate [9]: significantly lower

CC(C(=O)O)c1cccc(C(=O)c2ccccc2)c1 (stereo not drawn) [sodium salt]
hygroscopicity [10]: high hygroscopicity
